# According to patent US20220160652A1, “USE OF VITAMIN K IN COMBINATION WITH ANTICOAGULANTS” (KAYDENCE PHARMA AS, priority 2019, published 2022):
# Assays:
# [1] = system: human vascular smooth muscle cells (hVSMCs); assay: Vitamin K2 (MK-7) and ATP pathway: ATP luminescence with warfarin; format: cell-based; conditions: warfarin 50 μM with vitamin K2 (MK-7) 10 μM, 24 hours
# Protocol: This study was performed in order to determine the effect of vitamin K2 (MK-7) on warfarin-induced oxidative stress in muscles. To perform this study, human vascular smooth muscle cells (hVSMCs; 5,000 cells/well) were plated in 96-well dark plates and left to adhere overnight. Next, cells were incubated for 24 hours with either vehicle only (as blank control), warfarin (10 or 50 μM), vitamin K2 (MK-7) (10 μM), or a combination of warfarin (50 μM) and vitamin K2 (MK-7) (10 μM). Hoechst was added to correct for cell number (1 μg/mL). Next, ATP was measured using mammalian lysis buffer for 5 minutes after which 50 μL ATP substrate solution was added to the wells and incubated for 10 minutes in a dark environment. Finally, medium was transferred to a white plate to measure luminescence.
# VSMCs [2] = assay: ATP increase, 48 h incubation with CoCl2 comparison (luminescence); format: cell-based; conditions: 10 μM, vs CoCl2 100 μM
# Protocol: This study was performed to further investigate the origin of ATP production that is influenced by vitamin K2 (MK-7). To perform this study, VSCMs (5000 cells/well) were plated in 96-well plates and left to adhere overnight. Next, cells were incubated for 48 hours with either vehicle, CoCl2 (100 μM), vitamin K2 (MK-7) (10 μM), or UQ10 (10 μM). Hoechst was added to correct for cell number (1 μg/mL). Next, ATP was measured using mammalian lysis buffer for 5 minutes, after which 50 μL ATP substrate solution was added to the wells and incubated for 10 minutes in a dark environment. Finally, medium was transferred to a white plate to measure luminescence.
# VSMCs [3] = assay: Vitamin K2 (MK-7) and hypoxia: ATP on co-treatment with CoCl2; format: cell-based; conditions: co-treatment CoCl2 100 μM and 10 μM, 24 hours
# Protocol: This study was performed to investigate whether vitamin K2 (MK-7) can prevent the hypoxia-induced decrease in ATP (CoCl2 treatment, thereby stabilization of HIF1a). To perform this study, VSMCs were co-treated with CoCl2 and vitamin K2 (MK-7).
# First, VSCMs (5000 cells/well) were plated in 96-well plates and left to adhere overnight. Next, cells were incubated for 24 hours with either CoCl2 (100 μM) or CoCl2 and vitamin K2 (MK-7) or UQ10 together (100 and 10 μM, respectively). Next, ATP was measured and corrected for cell numbers. CoCl2 values were set as relative to CoCl2 co-treated with vitamin K2 (MK-7) or UQ10. Hoechst was added to correct for cell number (1 μg/mL). Next, ATP was measured using mammalian lysis buffer for 5 minutes after which 50 μL ATP substrate solution was added to the wells and incubated for 10 minutes in a dark environment. Finally, medium was transferred to a white plate to measure luminescence.
# VSMCs [4] = assay: Vitamin K2 (MK-7) effect on ATP over time; format: cell-based; conditions: 10 μM, indicated time points
# Protocol: This study was performed to investigate the effect of vitamin K2 (MK-7) on ATP over time. It is known that all cells, including VSMCs, proliferate. The term cell growth is used in the contexts of biological cell development and cell division (reproduction). When used in the context of cell division, it refers to growth of cell populations, where a cell, known as the “mother cell,” grows and divides to produce two “daughter cells” (M phase). When used in the context of cell development, the term refers to increase in cytoplasmic and organelle volume (G1 phase), as well as increase in genetic material (G2 phase) following the replication during S phase. When a cell is quiescent, this phase is called G0. Cell populations go through a particular type of exponential growth called doubling. Each generation of cells should be twice as numerous as the previous generation. However, the number of generations only gives a maximum figure as not all cells survive in each generation.
# To perform this study, first, VSCMs (5000 cells/well) were plated in 96-well plates and left to adhere overnight. […] Next, ATP was measured using mammalian lysis buffer for 5 minutes, after which 50 μL ATP substrate solution was added to the wells and incubated for 10 minutes in a dark environment. Finally, medium was transferred to a white plate to measure luminescence.
# Sprague-Dawley rats = assay: T-TAS thrombus formation in whole blood of treated Sprague-Dawley rats; format: in vivo, rat; conditions: added to dabigatran and to rivaroxaban
# Protocol: This experiment was conducted in order to evaluate the effects of vitamin K2 (MK-7) on the anticoagulant activity of the new oral anticoagulants (NOAC) rivaroxaban and dabigatran using the T-TAS Total Thrombus-formation Analysis System. The T-TAS Total Thrombus-formation Analysis System is a microchip-based flow chamber system capable of evaluating whole-blood thrombogenicity. It is a useful tool in monitoring the efficacy of anticoagulants on thrombus formation and predicting the risk of bleeding complications. To perform the study, 45 wild-type male Sprague-Dawley and 45 transgenic male Ren-2 rats [TGR(mREN-2)27] at the age of 10-11 weeks at the beginning of the treatment period were purchased from animal facility IKEM-CEM Institute of Clinical and Experimental Medicine (Prague, Czech Republic). All animals in the experiment were housed in individually ventilated cages (2-3 rats per cage) and kept in the animal rooms of JCET at a relative humidity of 55±10%, a temperature of 22±2 ° C., and a light cycle of 7 AM to 7 PM. The rats had free access to food and water. After delivery, animals were randomly divided into 10 experimental groups (5 or 10 rats per group), as indicated below in Table 1. Four days before the start of the treatment, the first part of animals' body weight and food intake was measured in selected representative three cages (rats n=9) to calculate the appropriate amount of tested compounds required for addition to the diet to obtain the dosing indicated in Table 1. It was estimated that food intake was approximately 30 g of chow per rat per day. […] The body mass of the rats was measured at the beginning and at the end of treatment. At the beginning and at the end of treatment, the food intake per day was measured in representative group of animals to monitor the daily dosing of tested compounds (per kg of body mass). The thrombus formation in vitro was measured in whole blood using a microchip-based flow chamber system according to manufacturers' protocol (Total Thrombus-formation Analyser System, T-TAS; Fujimori Kogyo Co., Ltd., Tokyo, Japan). […]
structure (smiles),measurement,setting,value
CC(C)=CCC/C(C)=C/CC/C(C)=C/CC/C(C)=C/CC/C(C)=C/CC/C(C)=C/CC/C(C)=C/CC1=C(C)C(=O)c2ccccc2C1=O [vitamin K2 (MK-7)],oxidative stress induced by warfarin,[1],counteracted the oxidative stress induced by warfarin
same,ATP levels compared to CoCl2,VSMCs [2],significant higher ATP levels
same,prevention of hypoxia-induced (CoCl2) decrease in ATP generation,VSMCs [3],could (partially) prevent the decreased ATP generation
same,ATP production in VSMCs over time,VSMCs [4],stimulated ATP production in VSMCs
same,formation of a clot (AUC) on addition of vitamin K2 (MK-7),Sprague-Dawley rats,did not prevent the formation of a clot
same,increase of occlusion Time (OT) on addition of vitamin K2 (MK-7),Sprague-Dawley rats,5-7%
